Values after ≈ are worked out from the molar mass of the structure shown. Read-outs that look alike come from different tables or passages of the source. No end group written: not given here.
Columns and labels:
[1] = test system: C. albicans cgmcc 2.2086; assay: Antifungal activity assay (broth microdilution, MIC/MFC); type: cell-based, Candida albicans; details: for MFC: 50 μl of MIC wells plated on YPD agar, 28°C, lowest concentration that completely killed fungal cells, consensus of at least three independent experiments
[2] = test system: C. albicans 17546; assay: microbe, parasite or virus in culture; details: Candida albicans, 17546, 48 h
[3] = test system: C. albicans sp3876; assay: microbe, parasite or virus in culture; details: Candida albicans, SP3876, 48 h
[4] = test system: C. albicans 56214; assay: microbe, parasite or virus in culture; details: Candida albicans, 56214, 48 h
[5] = test system: C. albicans 56452; assay: microbe, parasite or virus in culture; details: Candida albicans, 56452, 48 h
[6] = test system: C. albicans sp3903; assay: microbe, parasite or virus in culture; details: Candida albicans, SP3903, 48 h
[7] = test system: C. albicans 14936; assay: microbe, parasite or virus in culture; details: Candida albicans, 14936, 48 h
[8] = test system: C. albicans 58288; assay: microbe, parasite or virus in culture; details: Candida albicans, 58288, 48 h
[9] = test system: C. tropicalis cgmcc 2.1975; assay: Antifungal activity assay (broth microdilution, MIC/MFC); type: cell-based, Candida tropicalis; details: for MFC: 50 μl of MIC wells plated on YPD agar, 28°C, lowest concentration that completely killed fungal cells, consensus of at least three independent experiments
[10] = test system: C. albicans sp3902; assay: microbe, parasite or virus in culture; details: Candida albicans, SP3902, 48 h
[11] = test system: C. parapsilosis cgmcc 2.3989; assay: Antifungal activity assay (broth microdilution, MIC/MFC); type: cell-based, Candida parapsilosis; details: for MFC: 50 μl of MIC wells plated on YPD agar, 28°C, lowest concentration that completely killed fungal cells, consensus of at least three independent experiments
[12] = test system: C. albicans sp3931; assay: microbe, parasite or virus in culture; details: Candida albicans, SP3931, 48 h
[13] = test system: human erythrocytes; details: for HC10: red cells of human, 1 h
[14] = test system: C. albicans 56452; details: 56452, 48 h; for MIC: pH 7
[15] = test system: IPEC-J2 and PMEC cells; assay: Cytotoxicity MTT assay, statements for both cell lines; details: 24 h
[16] = test system: C. albicans 58288; details: 58288, 48 h; for MIC: pH 7
[17] = test system: C. albicans sp3902; details: sp3902, 48 h; for MIC: pH 7
[18] = test system: C. albicans 56214; details: 56214, 48 h; for MIC: pH 7
[19] = test system: IPEC-J2 cells
[20] = test system: PMEC cells
[21] = test system: C. albicans 14936; details: 14936, 48 h; for MIC: pH 7
[22] = test system: C. albicans sp3876; details: sp3876, 48 h; for MIC: pH 7
[23] = test system: C. albicans sp3931; details: sp3931, 48 h; for MIC: pH 7
[24] = test system: C. albicans 17546; details: 17546, 48 h; for MIC: pH 7
[25] = test system: C. albicans sp3903; details: sp3903, 48 h; for MIC: pH 7
[26] = test system: IPEC-J2 and PMEC cells
[27] = IPEC-J2 cells, MTT, 24 h treatment, 1-64 μM, probit regression
[28] = PMEC cells, MTT, 24 h treatment, 1-64 μM, probit regression

## C[C@@H]1[C@H](O)[C@@H](C)/C=C/C=C/C=C/C=C/C=C/C=C/C=C/[C@H](O[C@@H]2O[C@H](C)[C@@H](O)[C@H](N)[C@@H]2O)C[C@@H]2O[C@](O)(C[C@@H](O)C[C@@H](O)[C@H](O)CC[C@@H](O)C[C@@H](O)CC(=O)O[C@H]1C)C[C@H](O)[C@H]2C(=O)O [AmB, amphotericin B]
[1]; Candida albicans, CGMCC2, 48 h
  MFC: 1 µM (≈ 0.924 µg/mL)
[1]; Candida albicans, CGMCC2, broth microdilution, RPMI-MOPS pH 7.0, 28°C, 48 h, lowest concentration inhibiting 99% of growth (A492)
  MIC: 1 µM (≈ 0.924 µg/mL)
[2]
  MFC: 1 µM (≈ 0.924 µg/mL)
[2]; pH 7
  MIC: 0.25 µM (≈ 0.231 µg/mL)
[3]
  MFC: 0.5 µM (≈ 0.462 µg/mL)
[3]; pH 7
  MIC: 0.25 µM (≈ 0.231 µg/mL)
[4]
  MFC: 2 µM (≈ 1.85 µg/mL)
[4]; pH 7
  MIC: 1 µM (≈ 0.924 µg/mL)
[5]
  MFC: 2 µM (≈ 1.85 µg/mL)
[5]; pH 7
  MIC: 1 µM (≈ 0.924 µg/mL)
[6]
  MFC: 1 µM (≈ 0.924 µg/mL)
[6]; pH 7
  MIC: 0.13 µM (≈ 0.12 µg/mL)
[7]
  MFC: 0.5 µM (≈ 0.462 µg/mL)
[7]; pH 7
  MIC: 0.25 µM (≈ 0.231 µg/mL)
[8]
  MFC: 1 µM (≈ 0.924 µg/mL)
[8]; pH 7
  MIC: 0.5 µM (≈ 0.462 µg/mL)
[9]; Candida tropicalis, CGMCC2, 48 h
  MFC: 2 µM (≈ 1.85 µg/mL)
[9]; Candida tropicalis, CGMCC2, broth microdilution, RPMI-MOPS pH 7.0, 28°C, 48 h, lowest concentration inhibiting 99% of growth (A492)
  MIC: 1 µM (≈ 0.924 µg/mL)
[10]
  MFC: 1 µM (≈ 0.924 µg/mL)
[10]; pH 7
  MIC: 0.25 µM (≈ 0.231 µg/mL)
[11]; Lodderomyces parapsilosis, CGMCC2, 48 h
  MFC: 2 µM (≈ 1.85 µg/mL)
[11]; Lodderomyces parapsilosis, CGMCC2, broth microdilution, RPMI-MOPS pH 7.0, 28°C, 48 h, lowest concentration inhibiting 99% of growth (A492)
  MIC: 2 µM (≈ 1.85 µg/mL)
[12]
  MFC: 1 µM (≈ 0.924 µg/mL)
[12]; pH 7
  MIC: 0.25 µM (≈ 0.231 µg/mL)

## RIGRWLLWRGIRRIGRWL-NH2 [RW3]
[13]
  hemolytic activity (in words): strong hemolytic activities
  HC10: 3.81 µM
[1]; 48 h
  MFC: 4 µM
[1]; cgmcc 2.2086, 48 h, pH 7
  MIC: 4 µM
[14]
  MFC: 4 µM
  MIC: 4 µM
[15]
  concentration at which statistically significant cytotoxic effects started: 8 µM
[16]
  MFC: 8 µM
  MIC: 4 µM
[17]
  MFC: 2 µM
  MIC: 2 µM
[18]
  MFC: 2 µM
  MIC: 2 µM
[19]; [27]
  IC50: 14.8 µM
[20]; [28]
  IC50: 22.3 µM
[21]
  MFC: 4 µM
  MIC: 4 µM
[9]; 48 h
  MFC: 2 µM
[9]; cgmcc 2.1975, 48 h, pH 7
  MIC: 2 µM
[22]
  MFC: 4 µM
  MIC: 4 µM
[11]; 48 h
  MFC: 4 µM
[11]; cgmcc 2.3989, 48 h, pH 7
  MIC: 4 µM
[23]
  MFC: 4 µM
  MIC: 4 µM
[24]
  MFC: 8 µM
  MIC: 8 µM
[25]
  MFC: 8 µM
  MIC: 2 µM

## KIGKFLLFKGIKKIGKFL-NH2 [KF3]
[13]
  HC10: >64 µM
[1]; 48 h
  MFC: 32 µM
[1]; cgmcc 2.2086, 48 h, pH 7
  MIC: 32 µM
[14]
  MFC: 16 µM
  MIC: 16 µM
[16]
  MFC: 32 µM
  MIC: 32 µM
[17]
  MFC: 16 µM
  MIC: 16 µM
[18]
  MFC: 16 µM
  MIC: 16 µM
[19]; 24 h
  IC50: 48.5 µM
[20]; 24 h
  IC50: 60 µM
[21]
  MFC: 64 µM
  MIC: 64 µM
[9]; 48 h
  MFC: 8 µM
[9]; cgmcc 2.1975, 48 h, pH 7
  MIC: 8 µM
[22]
  MFC: 64 µM
  MIC: 64 µM
[11]; 48 h
  MFC: 32 µM
[11]; cgmcc 2.3989, 48 h, pH 7
  MIC: 32 µM
[23]
  MFC: 32 µM
  MIC: 32 µM
[24]
  MFC: 64 µM
  MIC: 64 µM
[25]
  MFC: 32 µM
  MIC: 32 µM
[26]
  cytotoxicity at 64 μM (in words): sharp rise in cytotoxicity

## KIGKWLLWKGIKKIGKWL-NH2 [KW3]
[13]
  hemolytic activity (in words): strong hemolytic activities
  HC10: 2.69 µM
[1]; 48 h
  MFC: 8 µM
[1]; cgmcc 2.2086, 48 h, pH 7
  MIC: 4 µM
[14]
  MFC: 4 µM
  MIC: 4 µM
[15]
  concentration at which statistically significant cytotoxic effects started: 4 µM
[16]
  MFC: 8 µM
  MIC: 8 µM
[17]
  MFC: 2 µM
  MIC: 2 µM
[18]
  MFC: 8 µM
  MIC: 4 µM
[19]; [27]
  IC50: 6.84 µM
[20]; [28]
  IC50: 10.3 µM
[21]
  MFC: 8 µM
  MIC: 8 µM
[9]; 48 h
  MFC: 2 µM
[9]; cgmcc 2.1975, 48 h, pH 7
  MIC: 2 µM
[22]
  MFC: 8 µM
  MIC: 8 µM
[11]; 48 h
  MFC: 8 µM
[11]; cgmcc 2.3989, 48 h, pH 7
  MIC: 8 µM
[23]
  MFC: 8 µM
  MIC: 8 µM
[24]
  MFC: 8 µM
  MIC: 8 µM
[25]
  MFC: 8 µM
  MIC: 4 µM

## KIGKVLLVKGIK-NH2 [KV2]
[1]; 48 h
  MFC: >64 µM
[1]; cgmcc 2.2086, 48 h, pH 7
  MIC: >64 µM
[14]
  MFC: >64 µM
  MIC: >64 µM
[16]
  MFC: >64 µM
  MIC: >64 µM
[17]
  MFC: >64 µM
  MIC: >64 µM
[18]
  MFC: >64 µM
  MIC: >64 µM
[21]
  MFC: >64 µM
  MIC: >64 µM
[9]; 48 h
  MFC: >64 µM
[9]; cgmcc 2.1975, 48 h, pH 7
  MIC: >64 µM
[22]
  MFC: >64 µM
  MIC: >64 µM
[11]; 48 h
  MFC: >64 µM
[11]; cgmcc 2.3989, 48 h, pH 7
  MIC: >64 µM
[23]
  MFC: >64 µM
  MIC: >64 µM
[24]
  MFC: >64 µM
  MIC: >64 µM
[25]
  MFC: >64 µM
  MIC: >64 µM

## KIGKVL-NH2 [KV]
[1]; 48 h
  MFC: >64 µM
[1]; cgmcc 2.2086, 48 h, pH 7
  MIC: >64 µM
[14]
  MFC: >64 µM
  MIC: >64 µM
[16]
  MFC: >64 µM
  MIC: >64 µM
[17]
  MFC: >64 µM
  MIC: >64 µM
[18]
  MFC: >64 µM
  MIC: >64 µM
[21]
  MFC: >64 µM
  MIC: >64 µM
[9]; 48 h
  MFC: >64 µM
[9]; cgmcc 2.1975, 48 h, pH 7
  MIC: >64 µM
[22]
  MFC: >64 µM
  MIC: >64 µM
[11]; 48 h
  MFC: >64 µM
[11]; cgmcc 2.3989, 48 h, pH 7
  MIC: >64 µM
[23]
  MFC: >64 µM
  MIC: >64 µM
[24]
  MFC: >64 µM
  MIC: >64 µM
[25]
  MFC: >64 µM
  MIC: >64 µM

## RIGRVLLVRGIRRIGRVL-NH2 [RV3]
[13]
  HC10: >64 µM
[1]; 48 h
  MFC: 32 µM
[1]; cgmcc 2.2086, 48 h, pH 7
  MIC: 32 µM
[14]
  MFC: 16 µM
  MIC: 16 µM
[15]; 1-64 μM
  cytotoxic effects (in words): negligible cytotoxic effects
[16]
  MFC: 32 µM
  MIC: 32 µM
[17]
  MFC: 32 µM
  MIC: 32 µM
[18]
  MFC: 32 µM
  MIC: 16 µM
[19]; [27]
  IC50: > 64 µM
[20]; [28]
  IC50: > 64 µM
[21]
  MFC: 32 µM
  MIC: 32 µM
[9]; 48 h
  MFC: 16 µM
[9]; cgmcc 2.1975, 48 h, pH 7
  MIC: 8 µM
[22]
  MFC: 32 µM
  MIC: 32 µM
[11]; 48 h
  MFC: 32 µM
[11]; cgmcc 2.3989, 48 h, pH 7
  MIC: 16 µM
[23]
  MFC: 32 µM
  MIC: 32 µM
[24]
  MFC: 64 µM
  MIC: 64 µM
[25]
  MFC: 32 µM
  MIC: 32 µM
